Results as given in PubChem BioAssay (NCI).
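48-hour exposure; five concentrations; linearly interpolated endpoints. GI50: concentration for 50% inhibition of growth. Definition used: TGI = concentration required for complete inhibition of growth.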

What was measured:
Experiment in all cases: growth of human tumour cells (NCI), 48 h
[1] = system: M14 melanoma
[2] = system: SF-295 CNS
[3] = system: SK-MEL-28 melanoma
[4] = system: BT-549 breast
[5] = system: RXF 393 renal
[6] = system: SN12C renal
[7] = system: MDA-MB-435
[8] = system: IGROV1 ovarian
[9] = system: HS 578T breast
[10] = system: HOP-92 NSCLC
[11] = system: HL-60(TB) leukemia
[12] = system: HCT-15 colon
[13] = system: COLO 205 colon
[14] = system: KM12 colon
[15] = system: MALME-3M melanoma
[16] = system: T-47D breast
[17] = system: SK-MEL-2 melanoma
[18] = system: SF-268 CNS
[19] = system: 786-0 renal
[20] = system: NCI/ADR-RES ovarian
[21] = system: K-562 leukemia
[22] = system: ACHN renal
[23] = system: OVCAR-5 ovarian
[24] = system: MDA-MB-231 breast
[25] = system: TK-10 renal
[26] = system: SNB-75 CNS
[27] = system: SK-MEL-5 melanoma
[28] = system: DU-145 prostate
[29] = system: PC-3 prostate
[30] = system: MOLT-4 leukemia
[31] = system: UACC-257 melanoma
[32] = system: SNB-19 CNS
[33] = system: NCI-H23 lung
[34] = system: NCI-H226 lung
[35] = system: NCI-H460 lung
[36] = system: HCC-2998 colon
[37] = system: SK-OV-3 ovarian
[38] = system: HCT-116 colon
[39] = system: HOP-62 NSCLC
[40] = system: A498 renal
[41] = system: SF-539 CNS
[42] = system: OVCAR-8 ovarian
[43] = system: EKVX NSCLC
[44] = system: OVCAR-4 ovarian
[45] = system: SW-620 colon
[46] = system: U251 CNS
[47] = system: UO-31 renal
[48] = system: A549 NSCLC
[49] = system: CCRF-CEM leukemia
[50] = system: CAKI-1 renal
[51] = system: MCF7 breast
[52] = system: OVCAR-3 ovarian
[53] = system: UACC-62 melanoma
[54] = system: LOX IMVI melanoma
[55] = system: NCI-H522 lung
[56] = system: RPMI-8226 leukemia

SMILES: Cn1cc(-c2csc(-c3cn(C(=O)OC(C)(C)C)c4ccccc34)n2)c2cccnc21
- GI50 [1]: 7.36 µM
- TGI [1]: 22.7 µM
- GI50 [2]: 3.42 µM
- TGI [2]: 14.5 µM
- GI50 [3]: 10.2 µM
- TGI [3]: 33.3 µM
- GI50 [4]: 6.87 µM
- TGI [4]: 21.2 µM
- GI50 [5]: 2.26 µM
- TGI [5]: 9.29 µM
- GI50 [6]: 6.45 µM
- TGI [6]: 21.6 µM
- GI50 [7]: 1.68 µM
- TGI [7]: 22.2 µM
- GI50 [8]: 6.5 µM
- TGI [8]: 31 µM
- GI50 [9]: 3.93 µM
- TGI [9]: 25.7 µM
- GI50 [10]: 3.81 µM
- TGI [10]: 19.9 µM
- GI50 [11]: 2.61 µM
- TGI [11]: 21.9 µM
- GI50 [12]: 6.35 µM
- TGI [12]: 37.7 µM
- GI50 [13]: 2.97 µM
- TGI [13]: 14.6 µM
- GI50 [14]: 2.78 µM
- TGI [14]: 9.57 µM
- GI50 [15]: 14.6 µM
- TGI [15]: 40.8 µM
- GI50 [16]: 3.71 µM
- TGI [16]: 15.6 µM
- GI50 [17]: 13.8 µM
- TGI [17]: 36.3 µM
- GI50 [18]: 8.01 µM
- TGI [18]: 35.3 µM
- GI50 [19]: 4.92 µM
- TGI [19]: 16.4 µM
- GI50 [20]: 2.33 µM
- TGI [20]: 14.4 µM
- GI50 [21]: 2.02 µM
- TGI [21]: > 100 µM
- GI50 [22]: 7.33 µM
- TGI [22]: 20.4 µM
- GI50 [23]: 14.6 µM
- TGI [23]: 29.9 µM
- GI50 [24]: 5.3 µM
- TGI [24]: 20 µM
- GI50 [25]: 15.9 µM
- TGI [25]: 42.2 µM
- GI50 [26]: 1.7 µM
- TGI [26]: 8.63 µM
- GI50 [27]: 2.56 µM
- TGI [27]: 13.2 µM
- GI50 [28]: 5.17 µM
- TGI [28]: 21.6 µM
- GI50 [29]: 4.89 µM
- TGI [29]: 24.4 µM
- GI50 [30]: 8.88 µM
- TGI [30]: 46.8 µM
- GI50 [31]: 8.97 µM
- TGI [31]: 23.6 µM
- GI50 [32]: 10.4 µM
- TGI [32]: 30.1 µM
- GI50 [33]: 11.2 µM
- TGI [33]: 30.9 µM
- GI50 [34]: 3.07 µM
- TGI [34]: 20.6 µM
- GI50 [35]: 3.92 µM
- TGI [35]: 17.7 µM
- GI50 [36]: 10.2 µM
- TGI [36]: 25.3 µM
- GI50 [37]: 10.1 µM
- TGI [37]: 48.2 µM
- GI50 [38]: 4.7 µM
- TGI [38]: 17.8 µM
- GI50 [39]: 12.1 µM
- TGI [39]: 30.4 µM
- GI50 [40]: 3.86 µM
- TGI [40]: 14.4 µM
- GI50 [41]: 3.51 µM
- TGI [41]: 17.4 µM
- GI50 [42]: 6.03 µM
- TGI [42]: 33.9 µM
- GI50 [43]: 7.12 µM
- TGI [43]: 33.7 µM
- GI50 [44]: 6.73 µM
- TGI [44]: 47 µM
- GI50 [45]: 4.53 µM
- TGI [45]: 21.6 µM
- GI50 [46]: 4.23 µM
- TGI [46]: 16.3 µM
- GI50 [47]: 3.46 µM
- TGI [47]: 21.3 µM
- GI50 [48]: 6.04 µM
- TGI [48]: 31.2 µM
- GI50 [49]: 3.89 µM
- TGI [49]: 67.6 µM
- GI50 [50]: 3.06 µM
- TGI [50]: 24.8 µM
- GI50 [51]: 2.85 µM
- TGI [51]: 16.3 µM
- GI50 [52]: 2.26 µM
- TGI [52]: 5.61 µM
- GI50 [53]: 7.8 µM
- TGI [53]: 22.4 µM
- GI50 [54]: 3.53 µM
- TGI [54]: 18.6 µM
- GI50 [55]: 3.84 µM
- TGI [55]: 25.4 µM
- GI50 [56]: 7.66 µM
- TGI [56]: 36.7 µM
